Results reported in ChEMBL document CHEMBL1201862, “PubChem BioAssay data set” (2004).
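48-hour exposure; five concentrations; linearly interpolated endpoints. Abbreviation: GI50, concentration required for 50% inhibition of growth.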 Active and inactive are the calls of the source. Rule as the data show it: active = GI50 up to about 1.1 µM and inactive = higher.

Columns and labels:
Experiment in all cases: NCI anticancer screen, dose series, 48 h
HT-29 = test system: HT-29
NCI-H460 = test system: NCI-H460
SK-OV-3 = test system: SK-OV-3
SF-268 = test system: SF-268
HOP-92 = test system: HOP-92
SW-620 = test system: SW-620
HL-60 = test system: HL-60
KM12 = test system: KM12
UO-31 = test system: UO-31
M14 = test system: M14
NCI/ADR-RES = test system: NCI/ADR-RES
SK-MEL-5 = test system: SK-MEL-5
HOP-62 = test system: HOP-62
SK-MEL-2 = test system: SK-MEL-2
LOX IMVI = test system: LOX IMVI
SF-539 = test system: SF-539
RXF 393 = test system: RXF 393
HCC 2998 = test system: HCC 2998
A498 = test system: A498
MDA-MB-231 = test system: MDA-MB-231

Compound	GI50 (HT-29)	GI50 (NCI-H460)	GI50 (SK-OV-3)	GI50 (SF-268)	GI50 (HOP-92)	GI50 (SW-620)	GI50 (HL-60)	GI50 (KM12)	GI50 (UO-31)	GI50 (M14)	GI50 (NCI/ADR-RES)	GI50 (SK-MEL-5)	GI50 (HOP-62)	GI50 (SK-MEL-2)	GI50 (LOX IMVI)	GI50 (SF-539)	GI50 (RXF 393)	GI50 (HCC 2998)	GI50 (A498)	GI50 (MDA-MB-231)
CC12CCCC3(CC(=O)C(C)(C)C3C(=O)C1)C2 (stereo unspecified)	> 100 µM (inactive)	> 100 µM (inactive)	> 100 µM (inactive)	> 100 µM (inactive)	> 100 µM (inactive)	> 100 µM (inactive)	> 100 µM (inactive)	> 100 µM (inactive)	> 100 µM (inactive)	> 100 µM (inactive)	> 100 µM (inactive)	> 100 µM (inactive)	> 100 µM (inactive)	> 100 µM (inactive)	> 100 µM (inactive)					
O=C1[C@@H]2C(c3ccncc3)=NO[C@@H]2C(=O)N1c1ccc(Cc2ccc(N3C(=O)[C@H]4C(c5ccncc5)=NO[C@H]4C3=O)cc2)cc1	> 100 µM (inactive)	> 100 µM (inactive)	> 100 µM (inactive)	> 100 µM (inactive)	> 100 µM (inactive)	> 100 µM (inactive)	> 100 µM (inactive)	> 100 µM (inactive)	> 100 µM (inactive)	> 100 µM (inactive)		> 100 µM (inactive)	> 100 µM (inactive)	> 100 µM (inactive)	> 100 µM (inactive)	> 100 µM (inactive)	> 100 µM (inactive)	> 100 µM (inactive)	> 100 µM (inactive)	
COc1ccc2c(c1OC)C(=O)N/C2=C\c1c(CCN(C)C)cc2c(c1OC)OCO2	> 100 µM (inactive)	> 100 µM (inactive)	> 100 µM (inactive)	> 100 µM (inactive)	> 100 µM (inactive)	> 100 µM (inactive)	> 100 µM (inactive)	> 100 µM (inactive)		> 100 µM (inactive)		42.4 µM (inactive)	> 100 µM (inactive)			> 100 µM (inactive)	22.7 µM (inactive)	> 100 µM (inactive)		41.1 µM (inactive)
O=[N+]([O-])c1cccnc1S(=O)(=O)c1ccccc1	6.41 µM (inactive)	13.9 µM (inactive)	20.5 µM (inactive)	10.5 µM (inactive)	1.97 µM (inactive)	3.27 µM (inactive)	2.49 µM (inactive)	19.6 µM (inactive)	6.52 µM (inactive)	9.4 µM (inactive)		18.1 µM (inactive)	17.3 µM (inactive)	16.2 µM (inactive)	4.46 µM (inactive)	11.3 µM (inactive)	1.99 µM (inactive)	13.6 µM (inactive)	22.1 µM (inactive)	
Cc1cccc(/C=C2/C(=O)Nc3ccccc32)n1	24.1 µM (inactive)	16.9 µM (inactive)	18.1 µM (inactive)	14.7 µM (inactive)	7.82 µM (inactive)	19.3 µM (inactive)	9.95 µM (inactive)	13.2 µM (inactive)	14.3 µM (inactive)	15.1 µM (inactive)	14.6 µM (inactive)	12.9 µM (inactive)	16.6 µM (inactive)	12.8 µM (inactive)		20.5 µM (inactive)	10.6 µM (inactive)	10.6 µM (inactive)	21.3 µM (inactive)	
CC(O)C(N/C=C1/N=C(c2ccccc2)OC1=O)C(=O)O (stereo unspecified)	> 100 µM (inactive)	> 100 µM (inactive)	> 100 µM (inactive)	> 100 µM (inactive)	> 100 µM (inactive)	> 100 µM (inactive)	10 µM (inactive)	> 100 µM (inactive)	> 100 µM (inactive)	> 100 µM (inactive)		> 100 µM (inactive)	> 100 µM (inactive)	> 100 µM (inactive)	> 100 µM (inactive)	> 100 µM (inactive)	> 100 µM (inactive)	> 100 µM (inactive)	> 100 µM (inactive)	
COc1ccccc1Nc1nc2c([nH]1)c(=O)n(C)c(=O)n2C	> 10 µM (inactive)		> 10 µM (inactive)	> 10 µM (inactive)	> 10 µM (inactive)	> 10 µM (inactive)	> 10 µM (inactive)	> 10 µM (inactive)		> 10 µM (inactive)		> 10 µM (inactive)	> 10 µM (inactive)		> 10 µM (inactive)		> 10 µM (inactive)	> 10 µM (inactive)		> 10 µM (inactive)
O=C(NCC(=O)N1CCOC1=O)OCc1ccccc1	> 100 µM (inactive)	> 100 µM (inactive)	> 100 µM (inactive)	> 100 µM (inactive)	> 100 µM (inactive)	> 100 µM (inactive)	> 100 µM (inactive)	> 100 µM (inactive)	> 100 µM (inactive)	> 100 µM (inactive)		> 100 µM (inactive)	> 100 µM (inactive)	> 100 µM (inactive)	> 100 µM (inactive)	> 100 µM (inactive)	> 100 µM (inactive)	> 100 µM (inactive)	> 100 µM (inactive)	
OC1=CN=C(c2ccccc2)Oc2ccccc21	> 100 µM (inactive)	> 100 µM (inactive)	> 100 µM (inactive)	41.4 µM (inactive)	> 100 µM (inactive)	> 100 µM (inactive)	> 100 µM (inactive)	50.9 µM (inactive)	> 100 µM (inactive)	> 100 µM (inactive)		> 100 µM (inactive)	68.1 µM (inactive)	> 100 µM (inactive)	> 100 µM (inactive)	19 µM (inactive)	> 100 µM (inactive)	> 100 µM (inactive)	> 100 µM (inactive)	
CCOC(=O)C=C1CCN(C(=O)c2ccccc2)CC1	> 100 µM (inactive)	> 100 µM (inactive)	> 100 µM (inactive)	> 100 µM (inactive)	> 100 µM (inactive)	> 100 µM (inactive)	> 100 µM (inactive)	> 100 µM (inactive)	> 100 µM (inactive)	> 100 µM (inactive)		> 100 µM (inactive)	> 100 µM (inactive)	< 0.01 µM (active)	> 100 µM (inactive)	> 100 µM (inactive)	> 100 µM (inactive)	> 100 µM (inactive)	> 100 µM (inactive)	
C=C1CC[C@@H]2C13[C@@H]1[C@H](CC(=O)[C@@]23C)C1(C)C (stereo partly specified)	> 100 µM (inactive)	> 100 µM (inactive)	> 100 µM (inactive)	> 100 µM (inactive)	> 100 µM (inactive)	51.4 µM (inactive)	> 100 µM (inactive)	> 100 µM (inactive)	16.4 µM (inactive)	> 100 µM (inactive)	> 100 µM (inactive)	> 100 µM (inactive)	24 µM (inactive)	> 100 µM (inactive)	> 100 µM (inactive)	67.1 µM (inactive)	43.6 µM (inactive)		> 100 µM (inactive)	
O=C(O)c1oc2cccc3c2c1CCC3	> 100 µM (inactive)	> 100 µM (inactive)	> 100 µM (inactive)	> 100 µM (inactive)	> 100 µM (inactive)	> 100 µM (inactive)	> 100 µM (inactive)	> 100 µM (inactive)	12.8 µM (inactive)	> 100 µM (inactive)		> 100 µM (inactive)	> 100 µM (inactive)	> 100 µM (inactive)	> 100 µM (inactive)	> 100 µM (inactive)	> 100 µM (inactive)	> 100 µM (inactive)	> 100 µM (inactive)	
